Values quoted from earlier work as cited in patent US20170173276A1, “SYSTEM AND METHOD FOR DELIVERING AN ANTI-ADHESIVE SUBSTANCE TO A BODY CAVITY” (Northgate Technologies Inc., priority 2003, published 2017).

How the values were obtained:
[1] = administration in liquid form; shown in some studies
[2] = general/typical value

| half life [2] [h] | Compound | post-operative shoulder pain [1] |
| --- | --- | --- |
|  | CCCCN1CCCCC1C(=O)Nc1c(C)cccc1C (stereo not drawn) [Bupivacaine] | reducing post-operative shoulder pain |
| 4 to 5 | low molecular weight heparin |  |
| 1 to 2 | unfractionated heparin |  |
